Patent publication US7202213B2 (Novo Nordisk A/S, priority 2000, dated 2007)
pEC50: −log10 of the molar value.

Tests used:
human PPAR γ = target: T1, human PPAR γ (Homo sapiens, UniProt P37231); test: In vitro PPAR gamma transactivation assay (GAL4-DBD-PPAR-LBD luciferase reporter in HEK293 cells); type: cell-based; conditions: for pEC50: HEK293 cells, 24 h with compound, five concentrations 0.01 to 30 μM, means of at least three experiments, read-out: In vitro activation PPAR γ EC50; for In vitro activation PPAR γ % max: fold activation relative to maximum activation obtained with rosiglitazone (approx. […] fold corresponded to 100%)
T1 construct: PPARα: aa 167-C-terminus; PPARγ: aa 165-C-terminus; expressed in transfected cells; host or cells: HEK293
T1 sequence (P37231 165-477 isoform P37231-2): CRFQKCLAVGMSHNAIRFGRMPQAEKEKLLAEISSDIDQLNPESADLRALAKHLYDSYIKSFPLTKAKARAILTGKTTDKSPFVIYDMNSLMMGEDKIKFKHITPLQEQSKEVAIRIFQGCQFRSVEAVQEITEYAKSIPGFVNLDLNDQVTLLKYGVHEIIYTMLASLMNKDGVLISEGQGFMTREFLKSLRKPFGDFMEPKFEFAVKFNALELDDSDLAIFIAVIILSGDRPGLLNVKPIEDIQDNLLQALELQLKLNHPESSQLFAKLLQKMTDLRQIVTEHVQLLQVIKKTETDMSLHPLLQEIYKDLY
From the text: (§1) The PPAR gene transcription activation assays were based on transient transfection into human HEK293 cells of two plasmids encoding a chimeric test protein and a reporter protein respectively. The chimeric test protein was a fusion of the DNA binding domain (DBD) from the yeast GAL4 transcription factor to the ligand binding domain (LBD) of the human PPAR proteins. The PPAR LBD harbored in addition to the ligand binding pocket also the native activation domain (activating function 2=AF2) allowing the fusion protein to function as a PPAR ligand dependent transcription factor. The GAL4 DBD will force the fusion protein to bind only to Gal4 enhancers (of which none existed in HEK293 cells). The reporter plasmid contained a Gal4 enhancer driving the expression of the firefly luciferase protein. After transfection, HEK293 cells expressed the GAL4-DBD-PPAR-LBD fusion protein. The fusion protein will in turn bind to the Gal4 enhancer controlling the luciferase expression, and do nothing in the absence of ligand. Upon addition to the cells of a PPAR ligand, luciferase protein will be produced in amounts corresponding to the activation of the PPAR protein. The amount of luciferase protein is measured by light emission after addition of the appropriate substrate.
(§2) Cell culture and transfection: HEK293 cells were grown in DMEM+10% FCS. Cells were seeded in 96-well plates the day before transfection to give a confluency of 50–80% at transfection. A total of 0,8 μg DNA containing 0,64 μg pM1α/γLBD, 0,1 μg pCMVβGal, 0,08 μg pGL2Gal4DBD and 0,02 μg p[…] was transfected per well using FuGene transfection reagent according to the manufacturers instructions (Roche). Cells were allowed to express protein for 48 h followed by addition of compound.
(§3) Plasmids: Human PPAR α and γ was obtained by PCR amplification using cDNA synthesized by reverse transcription of mRNA from liver and adipose tissue respectively. Amplified cDNAs were cloned into pCR2.1 and sequenced. The ligand binding domain (LBD) of each PPAR isoform was generated by PCR(PPARα: aa 167-C-terminus; PPARγ: aa 165-C-terminus) and fused to the DNA binding domain (DBD) of the yeast transcription factor GAL4 by subcloning fragments in frame into the vector pM1 generating the plasmids pM1αLBD and pM1γLBD. Ensuing fusions were verified by sequencing.
(§4) Luciferase assay: Medium including test compound was aspirated and 100 μl PBS incl. 1 mM Mg++ and Ca++ was added to each well. The luciferase assay was performed using the LucLite kit according to the manufacturers instructions (Packard Instruments). Light emission was quantified by counting SPC mode on a Packard Instruments top-counter. To measure β-galactosidase activity 25 μl supernatant from each transfection lysate was transferred to a new microplate. β-galactosidase assays were performed in the microwell plates using a kit from Promega and read in a microplate reader. The β-galactosidase data were used to normalize (transfection efficiency, cell growth etc.) the luciferase data.
(§5) Compounds: All compounds were dissolved in DMSO and diluted 1:1000 upon addition to the cells. Compounds were tested in quadruple in five concentrations ranging form 0.01 to 30 μM. Cells were treated with compound for 24 h followed by luciferase assay. Each compound was tested in three separate experiments. EC50 values were calculated via non-linear regression using GraphPad PRISM 3.02 (GraphPad Software, San Diego, Calif.). The results were expressed as means.
(§6) Compounds were tested in at least three separate experiments in five concentrations ranging from 0.01 to 30 μM.

human PPAR α = target: T2, human PPAR α (Homo sapiens, UniProt Q07869); test: In vitro PPAR alpha transactivation assay (GAL4-DBD-PPAR-LBD luciferase reporter in HEK293 cells); type: cell-based; conditions: for pEC50: HEK293 cells, 24 h with compound, five concentrations 0.01 to 30 μM, means of at least three experiments, read-out: In vitro activation PPAR α EC50; for In vitro activation PPAR α % max: fold activation relative to maximum activation obtained with Wy14643 (approx. 20 fold corresponded to 100%)
T2 construct: PPARα: aa 167-C-terminus; PPARγ: aa 165-C-terminus; expressed in transfected cells; host or cells: HEK293
T2 sequence (Q07869 167-468 limits assumed): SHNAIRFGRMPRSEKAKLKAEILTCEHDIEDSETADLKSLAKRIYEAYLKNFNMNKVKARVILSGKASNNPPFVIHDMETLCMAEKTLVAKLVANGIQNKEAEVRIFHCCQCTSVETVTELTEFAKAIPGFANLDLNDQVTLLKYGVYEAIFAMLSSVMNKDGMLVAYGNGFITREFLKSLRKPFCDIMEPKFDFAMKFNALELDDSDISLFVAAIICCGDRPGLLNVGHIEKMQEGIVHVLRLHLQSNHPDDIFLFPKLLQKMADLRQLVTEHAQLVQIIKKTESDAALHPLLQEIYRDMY
From the text: as §1, §2, §3, §4, §5, §6

Structure (SMILES)	pEC50 (human PPAR γ)	In vitro activation PPAR γ % max (human PPAR γ) [%]	pEC50 (human PPAR α)	In vitro activation PPAR α % max (human PPAR α) [%]	Maximum activation PPAR α (fold activation) (human PPAR α; reference maximum, corresponded to 100%)
CCOC(Cc1ccc(OCC=C(C)C#Cc2cccc3ccccc23)cc1)C(=O)O (stereo in doubt) [Example 18, (Z)-(S)-2-ethoxy-3-[4-(3-methyl-5-(1-naphthyl)-pent-2-en-4-ynyloxy)-phenyl]-propionic acid]	5.57	91	6.80	181	–
CCO[C@@H](Cc1ccc(OC/C=C(\C)C#Cc2cc(Cl)cc(Cl)c2)cc1)C(=O)O [Example 8, (E)-(S)-2-ethoxy-3-[4-(3-methyl-5-(3,5-dichloro-phenyl)-pent-2-en-4-ynyloxy)-phenyl]-propionic acid]	6.51	126	7.22	139	–
CCO[C@@H](Cc1ccc(OC/C=C(\C)C#Cc2cccc(C(F)(F)F)c2)cc1)C(=O)O [Example 12, (E)-(S)-2-ethoxy-3-[4-(3-methyl-5-(3-trifluoromethyl-phenyl)-pent-2-en-4-ynyloxy)-phenyl]-propionic acid]	6.47	105	7.30	195	–
CCO[C@@H](Cc1ccc(OC/C=C/C#Cc2cc(Cl)cc(Cl)c2)cc1)C(=O)O [Example 20, (E)-(S)-2-Ethoxy-3-[4-(5-(3,5-dichloro-phenyl)-pent-2-en-4-ynyloxy)-phenyl]-propionic acid]	5.85	112	7.40	154	–
Cc1cccc(Nc2cc(Cl)nc(SCC(=O)O)n2)c1C [Wy14643, reference compound]	–	–	–	–	approx. 20 fold
